Measurements reported in patent US20250361511A1, “NANOPARTICLE COMPOSITIONS CONTAINING SIRP-alpha siRNA FOR TREATMENT OF CANCER” (The Texas A&M University System, priority 2024, published 2025).

Tests used:
OVCAR3 monospheroids = experiment: Response to carboplatin chemotherapy, MTS viability, monospheroids; format: cell-based
Method: (§1) Spheroid formation on 384-well hanging drop arrays. OvCa monospheroids or OvCa/macrophage heterospheroids were formed on a 384-well hanging drop array following well-established protocols. OvCa monospheroids were initiated with 100 cells in a 20 μL drop of growth medium. To create OvCa/macrophage heterospheroids, the hanging drop platform was first leveraged to differentiate THP-1 monocytes to M0 macrophages by phorbol ester exposure20. Following a 3-day differentiation, macrophages were harvested and mixed with OvCa cells (50:50) to create heterospheroids. Monospheroid or heterospheroid formation was visually confirmed using phase contrast microscopy at day 4.
(§2) Response to chemotherapy. Carboplatin (MedChemExpress, Monmouth Junction, NJ) was dissolved by sonication in sterile PBS at a stock concentration of 5 mg/mL. OVCAR3 monospheroids or OVCAR3/macrophage heterospheroids formed over 4 days were treated with 0-500 μM carboplatin and incubated for 2 days/48 hours. An MTS assay was then used to determine the percent cell viability in carboplatin-treated spheroids compared to untreated controls. IC50 values were calculated with the GraphPad Prism normalized log (inhibitor) variable slope nonlinear fit function.
(§3) siSIRPα LNP immune checkpoint treatment. Mono-or hetero-spheroids were treated with 25 nM siSIRPα LNP on day 2 in hanging drop culture. LNP ability to reduce both macrophage SIRPα expression and OvCa metastatic behavior were evaluated over 4 more days.

[1] = test system: OVCAR3/macrophage heterospheroids; experiment: Response to carboplatin chemotherapy, MTS viability, heterospheroids; format: cell-based
Method: as §1, §2, §3

## N.N.O=C([O-])C1(C(=O)[O-])CCC1.[Pt+2] [carboplatin]
OVCAR3 monospheroids; OVCAR3 monospheroids, carboplatin 0-500 μM, FIG. 1B
  IC50: 114 µM
OVCAR3 monospheroids; monospheroids after siSIRPα LNP, FIG. 15A
  IC50: 272 µM
OVCAR3 monospheroids; monospheroids, control, 0-500 μM for 48 hours, MTS, FIG. 10C/15A
  IC50: 218 µM
[1]; OVCAR3/THP1 OvCa/MP hetero-spheroids, no LNP, FIG. 1B/6B
  IC50: 536 µM
[1]; OvCa/MP hetero-spheroids treated with siSIRPα-LNP, FIG. 6B
  IC50: 213 µM
[1]; heterospheroids with 25 nM siSIRPα LNP treatment, FIG. 14B
  IC50: 321 ± 54.6 µM
[1]; heterospheroids with negative control (scramble) siRNA LNP, FIG. 15C
  IC50: 405 µM
[1]; heterospheroids, no treatment, 0-500 μM for 48 hours, MTS, FIG. 10C/14B/15C
  IC50: 368 µM
